Consider 15 molecules from patent US20240368150A1 (Hoffmann-La Roche Inc., priority 2021, published 2024).

Like-named read-outs stand apart in the source and are kept apart here. Bounds are passed on as bounds.

Experiment [1] deals with primary human T-cells. Nature of the experiment: Proliferation assay after 5 days (CellTiter-Glo, CD3 stimulation; PBS counter screen). It is filed as cell-based. The note with it: Homo sapiens, T-cell, 120 h, CD3 stimulation; for Emax: 5 days, normalized to reference compound A1 as stimulator control = 100%, DMSO neutral control, read-out: Emax proliferation (% activation); for EC50: primary human T-cells, CellTiter-Glo after 5 days, EC50 of fitted sigmoidal curve, read-out: Tcell Proliferation CD3 EC50. The method, boiled down: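 After compound addition to medium-only plates, cells are cultured 5 days, equilibrated to room temperature, mixed with an equal volume of CellTiter-Glo 2.0 and rocked 15 min before luminescence is read. Signal reflects ATP content, taken as proportional to cell number.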
In general terms: Cellular ATP, detected with luciferase, serves as a proxy for viable cell number.

The test system of experiment [2] is primary human T-cells.
Protocol: As readouts for T-cell activation, IL2 secretion after 24 hours and proliferation after 5 days was measured. Increases in IL2 secretion and proliferation upon compound treatment were assessed as the % of the maximum of reference compound A1. […] As a counter screen and to make sure that no unwanted TCR-independent activation was triggered, PBS conditions were run for all compounds.
For coating of plates, PBS++ with PBS−− or PBS++ with CD3 antibody (concentration depending on donor and determined by CD3 titrations) was added 100 μl/well to Poly-D Lysine coated 96-well plates. Plates were sealed and incubated at room temperature for 3 hours on a table-top rocking platform. After incubation, plates were washed once with PBS−− and filled with 40 μl/well culture medium only. Compounds were then added (see next section) to medium only plates. After 3 hours of culturing the T-cells, cells were filtered through a cell strainer (Miltenyi Biotech, #130-041-407), counted again and concentration was adjusted to 1.25 Mio/ml.
Cells were then seeded 80 μl/well to the 40 μl/well including dispensed compounds according to plate layout. By adding cells, compounds were further diluted 1:3, and resulting in 100 k cells/120 μl/well. After 24 hours 40 μl of supernatant was collected carefully from the top while not disturbing the cells and transferred into a round bottom 96 well plate. Collected and frozen supernatant was used for detection of IL2 using the IL-2 Human ProQuantum Immunoassay Kit (Invitrogen) or using the Human IL-2 ELISA Kit (Thermo Fisher).
Compounds were added in a 5 or 6pt dose response with the Tecan D300e Digital Dispenser, all conditions 3 times more concentrated than the end-concentration, since cells are added afterwards (80 μl cells to 40 μl prepared medium with treatment). The DR was starting at 20 μM or 10 μM final top concentration and a dilution factor of 3.333. The positive control was the reference compound A1 that was added in a dose response as well, additionally to 3 wells of only 20 μM representing the positive stimulator control. All wells were normalized with DMSO to a final concentration of 0.6% (0.2% end-concentration).
The immunoassay is done following the manufacturer's manual (Invitrogen, #A35603). Additional information: For the immunoassay, MicroAmp™ EnduraPlate™ Optical 384-Well plates are used. Frozen supernatant is thawed and centrifuged for 5 minutes at 1000×g, both steps at 4° C. After centrifugation, required sample amount is taken from the top, and in a separate LightCycler V-bottom plate (working plate) diluted with assay dilution buffer, dilution factor depending on the PBS or CD3 condition but at least 1:3. IL-2 standard and blanks are prepared in the same V-bottom plate, standard with a range of 0.0128-5000 pg/ml (extended version). After preparation, 5 μl of sample dilutions or standard/blanks are transferred to the optical 384-well plate (assay plate) and the 10 μl reaction protocol is being followed. For measurement, the QuantStudio 12K Flex system is used.
ELISA is done following the manufacturer's manual (Thermo Fisher Scientific, #88-7025-88). Additional information: For the ELISA Nunc MaxiSorp 96 well plates are used. Frozen supernatant is thawed and centrifuged for 5 minutes at 1000×g, both steps at 4° C. After that, required sample amount is taken from the top, and in a separate V-bottom plate diluted with ELISA diluent, dilution factor depending on the PBS or CD3 condition. IL-2 standard and blanks are prepared in the same V-bottom plate. After preparation, 50 μl of sample dilutions and 100 μl of standard or blanks are transferred to the Nunc plates.
CD3 and PBS plates were analysed separately in Genedata Screener using Roche Normalization PCT_POS_CTRL with DMSO set as Neutral Control and 20 μM of the reference compound A1 set as Stimulator Control/100%.
For CD3 conditions EC50 and Emax of the fitted sigmoidal curve were reported.

Take `CC(C)(C)c1nnc(-c2ccc3c(c2)N(Cc2ccc(OCC4CCOCC4)cc2)C(=O)[C@@H](N)CS3(=O)=O)o1` [Example 433, (3R)-3-amino-7-(5-tert-butyl-1,3,4-oxadiazol-2-yl)-1,1-dioxo-5-[[4-(tetrahydropyran-4-ylmethoxy)phenyl]methyl]-2,3-dihydro-1λ^6,5-benzothiazepin-4-one]: in the experiment on primary human T-cells [1], the Emax came out at 105% and the EC50 amounted to 4790 nM. Besides, the EC50 in the experiment with primary human T-cells [2] was found to be 5600 nM.

In the case of `Cc1ccncc1-c1nc(-c2cc3c(cc2F)S(=O)(=O)C[C@H](N)C(=O)N3Cc2ccc(Cl)cc2)no1` [Example 310, (3R)-3-amino-5-[(4-chlorophenyl)methyl]-8-fluoro-7-[5-(4-methyl-3-pyridyl)-1,2,4-oxadiazol-3-yl]-1,1-dioxo-2,3-dihydro-1λ^6,5-benzothiazepin-4-one], in the experiment with primary human T-cells [1], the Emax came out at 90%. Also, the EC50 with primary human T-cells [1] turned out to be 2710 nM; in the experiment with primary human T-cells [2] it was 3240 nM.

Turning to `CCN1CCCC(Nc2nnc(-c3cc4c(cc3F)S(=O)(=O)C[C@H](N)C(=O)N4Cc3ccc(Cl)cc3)o2)C1` (stereo partly drawn) [Example 457, (3R)-3-amino-5-[(4-chlorophenyl)methyl]-7-[5-[(1-ethyl-3-piperidyl)amino]-1,3,4-oxadiazol-2-yl]-8-fluoro-1,1-dioxo-2,3-dihydro-1λ^6,5-benzothiazepin-4-one], the Emax with primary human T-cells [1] came out at 50%. Besides, the EC50 with primary human T-cells [1] was determined as 1140 nM; with primary human T-cells [2], 4880 nM.

Regarding `CC(C)(CC(F)(F)F)Nc1nnc(-c2cc3c(cc2F)S(=O)(=O)C[C@H](N)C(=O)N3Cc2ccc(Cl)cc2)o1` [Example 494, (3R)-3-amino-5-[(4-chlorophenyl)methyl]-8-fluoro-1,1-dioxo-7-[5-[(3,3,3-trifluoro-1,1-dimethyl-propyl)amino]-1,3,4-oxadiazol-2-yl]-2,3-dihydro-1λ^6.5-benzothiazepin-4-one], in the experiment on primary human T-cells [1], the Emax came out at 118% and the EC50 came out at 464 nM. In the experiment on primary human T-cells [2], this molecule yielded an EC50 of 1200 nM.

As to `CS(=O)(=O)N1CCC(n2nnc(-c3cc4c(cc3F)S(=O)(=O)C[C@H](N)C(=O)N4Cc3ccc(Cl)cc3)n2)CC1` [Example 17, (3R)-3-amino-5-[(4-chlorophenyl)methyl]-8-fluoro-7-[2-(1-methylsulfonyl-4-piperidyl)tetrazol-5-yl]-1,1-dioxo-2,3-dihydro-1λ^6,5-benzothiazepin-4-one], in the experiment on primary human T-cells [1], the Emax was 239% and the EC50 was found to be 167 nM. Moreover, the EC50 with primary human T-cells [2] turned out to be 262 nM.

Take `N[C@H]1CS(=O)(=O)c2cc(F)c(-c3nnc(-c4ccccc4F)o3)cc2N(Cc2ccc(Cl)cc2)C1=O` [Example 108, (3R)-3-amino-5-[(4-chlorophenyl)methyl]-8-fluoro-7-[5-(2-fluorophenyl)-1,3,4-oxadiazol-2-yl]-1,1-dioxo-2,3-dihydro-1λ^6,5-benzothiazepin-4-one]: in the experiment on primary human T-cells [1], the Emax was found to be 117% and the EC50 is 1530 nM. In the experiment on primary human T-cells [2], this molecule came in with an EC50 of 498 nM.

`Cc1c(F)c(-c2nnc(C(C)(C)C)o2)cc2c1S(=O)(=O)C[C@H](N)C(=O)N2Cc1ccc(Cl)cc1` [Example 218, (3R)-3-amino-7-(5-tert-butyl-1,3,4-oxadiazol-2-yl)-5-[(4-chlorophenyl)methyl]-8-fluoro-9-methyl-1,1-dioxo-2,3-dihydro-1λ^6,5-benzothiazepin-4-one]: in the experiment on primary human T-cells [1], the Emax stood at 80% and the EC50 is 3890 nM. The molecule further registered an EC50 in the experiment with primary human T-cells [2] of 7860 nM.

With `N[C@H]1CS(=O)(=O)c2cc(F)c(-c3nnc(NC45CC(C4)C5)o3)cc2N(Cc2ccc(Cl)cc2)C1=O` [Example 501, (3R)-3-amino-7-[5-(1-bicyclo[1.1.1]pentanylamino)-1,3,4-oxadiazol-2-yl]-5-[(4-chlorophenyl)methyl]-8-fluoro-1,1-dioxo-2,3-dihydro-1λ^6.5-benzothiazepin-4-one], the Emax in the experiment with primary human T-cells [1] is 92%. Further, the values for the EC50 in the experiment on primary human T-cells [1] and in the experiment on primary human T-cells [2] were 473 nM and 3120 nM, respectively.

As to `CC(C)(C)c1nnc(-c2cc3c(cc2F)S(=O)(=O)C[C@H](N)C(=O)N3Cc2ccc(Cl)c(F)c2)o1` [Example 245, (3R)-3-amino-7-(5-tert-butyl-1,3,4-oxadiazol-2-yl)-5-[(4-chloro-3-fluoro-phenyl)methyl]-8-fluoro-1,1-dioxo-2,3-dihydro-1λ^6,5-benzothiazepin-4-one], in the experiment on primary human T-cells [1], the Emax amounted to 127% and the EC50 came out at 102 nM. Besides, the EC50 in the experiment with primary human T-cells [2] came out at 92.1 nM.

For `N[C@H]1CS(=O)(=O)c2cc(F)c(-c3nnc(CC4CC(F)(F)C4)o3)cc2N(Cc2ccc(Cl)cc2)C1=O` [Example 77, (3R)-3-Amino-5-[(4-chlorophenyl)methyl]-7-[5-[(3,3-difluorocyclobutyl)methyl]-1,3,4-oxadiazol-2-yl]-8-fluoro-1,1-dioxo-2,3-dihydro-1λ^6,5-benzothiazepin-4-one], the Emax in the experiment on primary human T-cells [1] stood at 183%. Moreover, in the experiment with primary human T-cells [2], the EC50 was found to be 341 nM.

Take `CN1CCCC(n2nnc(-c3cc4c(cc3F)S(=O)(=O)C[C@H](N)C(=O)N4Cc3ccc(Cl)cc3)n2)C1` (stereo partly drawn) [Example 20, (3R)-3-amino-5-[(4-chlorophenyl)methyl]-8-fluoro-7-[2-(1-methyl-3-piperidyl)tetrazol-5-yl]-1,1-dioxo-2,3-dihydro-1λ^6,5-benzothiazepin-4-one]: in the experiment with primary human T-cells [1], the Emax was 111% and the EC50 turned out to be 567 nM. In the experiment on primary human T-cells [2], the EC50 is 846 nM.

Consider `CN1CC(c2nnc(-c3ccc4c(c3)N(Cc3ccc(OC(F)(F)F)cc3)C(=O)[C@@H](N)CS4(=O)=O)o2)CC(F)(F)C1` (stereo partly drawn) [Example 421, (3R)-3-amino-7-[5-(5,5-difluoro-1-methyl-3-piperidyl)-1,3,4-oxadiazol-2-yl]-1,1-dioxo-5-[[4-(trifluoromethoxy)phenyl]methyl]-2,3-dihydro-1λ^6,5-benzothiazepin-4-one], for which, in the experiment with primary human T-cells [1], the Emax was determined as 123% and the EC50 was 2480 nM. In the experiment on primary human T-cells [2], the EC50 is 3240 nM.

With `C[C@@H]1[C@H](N)C(=O)N(Cc2ccc(Cl)cc2)c2cc(-c3nnc(C(C)(C)C)o3)c(F)cc2S1(=O)=O` [Example 190, (2R,3R)-3-amino-7-(5-tert-butyl-1,3,4-oxadiazol-2-yl)-5-[(4-chlorophenyl)methyl]-8-fluoro-2-methyl-1,1-dioxo-2,3-dihydro-1λ^6,5-benzothiazepin-4-one], in the experiment with primary human T-cells [1], the Emax turned out to be 114% and the EC50 stood at 1160 nM. Moreover, in the experiment with primary human T-cells [2], the EC50 is 1640 nM.

Take `CC1(C)CNCC(c2nc(-c3cc4c(cc3F)S(=O)(=O)C[C@H](N)C(=O)N4Cc3ccc(Cl)cc3)no2)C1` (stereo partly drawn) [Example 302, (3R)-3-amino-5-[(4-chlorophenyl)methyl]-7-[5-(5,5-dimethyl-3-piperidyl)-1,2,4-oxadiazol-3-yl]-8-fluoro-1,1-dioxo-2,3-dihydro-1λ^6,5-benzothiazepin-4-one]: in the experiment on primary human T-cells [1], the Emax is 76% and the EC50 worked out at 990 nM. The molecule also had an EC50 with primary human T-cells [2] greater than 10000 nM.

Turning to `CC(C)(C)c1nnc(-c2ccc3c(c2)N(Cc2ccc(OCC(F)F)cc2)C(=O)[C@@H](N)CS3(=O)=O)o1` [Example 432, (3R)-3-amino-7-(5-tert-butyl-1,3,4-oxadiazol-2-yl)-5-[[4-(2,2-difluoroethoxy)phenyl]methyl]-1,1-dioxo-2,3-dihydro-1λ^6,5-benzothiazepin-4-one], the Emax in the experiment with primary human T-cells [1] worked out at 103%. Moreover, the figures for the EC50 in the experiment with primary human T-cells [1] and in the experiment on primary human T-cells [2] were 1440 nM and 2700 nM, respectively.
